According to patent publication US5670138A, “Mouth-care products” (Sara Lee/DE N.V., priority 1994, dated 1997):

Key:
[1] = tested on: acid phosphatase and pyrophosphatase; assay: Inhibition of the enzymatic hydrolysis of pyrophosphate; type: biochemical; settings: 480 ppm pyrophosphate, tris buffer pH=7
Protocol: To a solution, 3 ml, containing 480 ppm of pyrophosphate, various polymers, as defined in the table, optionally in combination with fluoride, and tris buffer (pH=7), 6*10^-2 U acid phosphatase and 4*10^-2 U pyrophosphatase ware added. The enzymatic hydrolysis of pyrophosphatase was determined by the withdrawal of 0.5 ml samples and measuring the orthophosphate concentration (V/MO complex).

[2] = Triclosan concentration in supernatant with polymer; settings: 3000 ppm triclosan, no polymer
Protocol: Polymer and 3000 ppm bactericide (Bromochlorophene (BCP) or triclosan) were solved in distilled water at pH=12.5 (NaOH). […] The bactericide concentration was determined at pH 8, 7 or 6 in the supernatant solution by UV/VIS at pH=12.5 and 37° C.

[F-].[Na+] [NaF, sodium fluoride]
ppm orthophosphate after 60 min [1]: 1.8 ppm
ppm orthophosphate after 120 min [1]: 3.9 ppm
ppm orthophosphate after 240 min [1]: 9.6 ppm

Oc1cc(Cl)ccc1Oc1ccc(Cl)cc1Cl [triclosan, 5-chloro-2-(2,4-dichlorophenoxy)phenol]
ppm triclosan in supernatant at pH 6 [2]: 7 ± 3 ppm
ppm triclosan in supernatant at pH 7 [2]: 15 ± 1 ppm
ppm triclosan in supernatant at pH 8 [2]: 30 ± 2 ppm
